# Patent publication US10039764B2, “Treatment and diagnosis of cancer and precancerous conditions using PDE10A inhibitors and methods to measure PDE10A expression” (University of South Alabama, priority 2013, dated 2018)
# Read-outs that look alike come from different tables or passages of the source.
# Tests used:
# [1] = system: HCT116 human colon tumor cells; test: Growth assay (Cell Titer Glo), HCT116; format: cell-based; conditions: for HCT116 colon tumor cell growth, single agents and combination (in words): FIG. 12A
# Excerpt: (§1) All cell lines comprising the NCI-60 cancer cell panel were obtained from the NCI Developmental Therapeutics Program and maintained under the same standard conditions. The human normal colonocyte (NCM460) cell line was purchased from Incell (San Antonio, Tex.) and grown according to the manufacturer's specifications. The human colon adenoma cell line, LT97, was a gift from Dr. Brigitte Marian (Medical University Vienna, Austria) and grown according to the provider's specifications. Human mammary epithelial cells (HMEC) were purchased from Lonzo and grown using culture conditions as recommended by the supplier.
# (§2) Ninety-six (96)-well microtiter plates were seeded at a density of 5,000 cells per well. For drug treatment, cells were treated with compounds or vehicle control, and incubated at 37° C. for 72 hours. For siRNA assays, cells were transfected with siRNA under the same conditions described above. The effect of treatment with inhibitors or siRNA knockdown of PDE10A on growth was measured using the Cell Titer Glo Assay (Promega), which measures viable cell number based on ATP content.
# (§3) Effect of various PDE isozyme inhibitors on the growth of human colon tumor cells HCT116 and HT29 was determined using the Cell Titer Glo Cell Viability Assay (Promega) following 72 hours of treatment.
# (§4) The effect of the inhibitors on the growth of human colon tumor and normal colonocytes was measured using the Cell Titer Glo Cell Viability Assay (Promega) as described above. The inhibitory potency toward purified recombinant phosphodiesterase enzymes was measured using the IMAP Phosphodiesterase Assay as described in the Materials and Methods section.
# [2] = system: HT29 human colon tumor cells; test: Growth assay (Cell Titer Glo), HT29; format: cell-based
# Excerpt: as §1, §2, §3, §4
# PDE10A [3] = target: T1, PDE10A (Homo sapiens, UniProt Q9Y233); test: IMAP fluorescence polarization PDE assay, PDE10A; format: biochemical; conditions: recombinant enzyme
# T1 construct: other: substrate cGMP; recombinant enzyme; other: substrate cAMP
# T1 sequence (Q9Y233 290-1055 limits assumed): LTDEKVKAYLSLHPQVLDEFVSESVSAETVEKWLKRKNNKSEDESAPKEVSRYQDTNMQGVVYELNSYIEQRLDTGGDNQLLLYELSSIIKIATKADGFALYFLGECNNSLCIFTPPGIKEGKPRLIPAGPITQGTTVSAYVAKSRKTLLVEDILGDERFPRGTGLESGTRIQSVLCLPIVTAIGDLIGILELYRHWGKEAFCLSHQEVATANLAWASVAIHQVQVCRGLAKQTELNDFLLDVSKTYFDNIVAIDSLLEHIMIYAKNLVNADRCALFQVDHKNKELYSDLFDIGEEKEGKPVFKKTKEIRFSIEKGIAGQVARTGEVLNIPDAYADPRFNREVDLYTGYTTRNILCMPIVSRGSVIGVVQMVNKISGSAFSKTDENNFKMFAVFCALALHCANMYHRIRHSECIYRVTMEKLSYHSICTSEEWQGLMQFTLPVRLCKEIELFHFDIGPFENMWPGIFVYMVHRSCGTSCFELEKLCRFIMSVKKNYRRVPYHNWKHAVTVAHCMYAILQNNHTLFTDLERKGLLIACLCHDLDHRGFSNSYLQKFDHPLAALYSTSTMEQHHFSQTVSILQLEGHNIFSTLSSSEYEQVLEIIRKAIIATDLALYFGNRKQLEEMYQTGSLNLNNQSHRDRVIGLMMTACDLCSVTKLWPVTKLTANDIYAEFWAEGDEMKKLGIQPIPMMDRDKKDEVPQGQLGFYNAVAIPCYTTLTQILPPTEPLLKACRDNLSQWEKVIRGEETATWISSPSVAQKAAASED
# Method: (§5) MY5445 was purchased from EMD Millipore. […] Recombinant PDE enzymes were purchased from BPS Biosciences. DMSO was used as the vehicle for testing effects of all compounds.
# (§6) PDE enzymatic activity was measured using IMAP fluorescence polarization assay (Molecular Devices. Inc.). […] For experiments involving cell extracts, 2×10^5 cells per well were plated on a six-well tissue culture plate 72 hours prior to cell lysis.
# as §4
# [4] = system: SW480 human colon tumor cells; test: Growth assay (Cell Titer Glo), SW480; format: cell-based; conditions: PDE10 Inhibitors table, read-out: Growth Inhibition IC50, SW-480
# Excerpt: as §1, §2, §4
# PDE10A [5] = conditions: reported; substrate column not distinguished; read-out: Phosphodiesterase Inhibition PDE10A IC50 (reported); cited from earlier work
# PDE3A = target: T2, PDE3A (Homo sapiens, UniProt Q14432); conditions: reported; substrate column not distinguished; read-out: Phosphodiesterase Inhibition PDE3A IC50 (reported); cited from earlier work
# T2 construct: purchased BPS Biosciences
# T2 sequence (Q14432 whole entry): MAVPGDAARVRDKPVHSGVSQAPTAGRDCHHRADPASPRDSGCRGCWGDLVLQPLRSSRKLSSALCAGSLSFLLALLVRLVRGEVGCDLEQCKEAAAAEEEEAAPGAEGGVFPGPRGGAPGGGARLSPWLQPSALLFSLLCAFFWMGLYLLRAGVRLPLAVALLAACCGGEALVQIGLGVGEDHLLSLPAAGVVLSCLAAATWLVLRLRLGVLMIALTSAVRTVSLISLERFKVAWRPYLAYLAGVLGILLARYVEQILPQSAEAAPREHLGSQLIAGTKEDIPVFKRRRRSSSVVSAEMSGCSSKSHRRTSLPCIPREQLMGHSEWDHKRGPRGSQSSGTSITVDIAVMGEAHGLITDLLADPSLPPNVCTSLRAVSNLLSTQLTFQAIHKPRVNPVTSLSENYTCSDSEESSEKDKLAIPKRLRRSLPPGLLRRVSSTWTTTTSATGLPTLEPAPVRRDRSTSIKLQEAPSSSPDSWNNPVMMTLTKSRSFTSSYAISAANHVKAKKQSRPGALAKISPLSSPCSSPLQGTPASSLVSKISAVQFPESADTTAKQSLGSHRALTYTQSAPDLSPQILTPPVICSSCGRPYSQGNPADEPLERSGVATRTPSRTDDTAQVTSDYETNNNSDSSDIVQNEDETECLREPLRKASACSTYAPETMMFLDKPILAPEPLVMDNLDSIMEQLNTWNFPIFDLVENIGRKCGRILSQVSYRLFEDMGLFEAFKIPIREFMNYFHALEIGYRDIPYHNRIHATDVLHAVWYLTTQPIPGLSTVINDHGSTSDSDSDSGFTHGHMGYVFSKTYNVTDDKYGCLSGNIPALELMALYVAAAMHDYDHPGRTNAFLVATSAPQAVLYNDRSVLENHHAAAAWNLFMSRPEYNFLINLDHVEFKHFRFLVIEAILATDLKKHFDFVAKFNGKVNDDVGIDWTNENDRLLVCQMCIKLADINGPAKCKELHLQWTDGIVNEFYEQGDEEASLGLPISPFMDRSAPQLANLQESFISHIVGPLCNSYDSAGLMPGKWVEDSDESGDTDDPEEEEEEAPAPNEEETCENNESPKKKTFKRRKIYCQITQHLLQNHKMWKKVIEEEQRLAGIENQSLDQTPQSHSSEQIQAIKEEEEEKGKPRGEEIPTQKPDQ
# PDE7A1 = PDE7A1 (Homo sapiens, UniProt Q13946); conditions: @ 3 μM; cited from earlier work
# Sequence of PDE7A1 (Q13946 whole entry, species assumed): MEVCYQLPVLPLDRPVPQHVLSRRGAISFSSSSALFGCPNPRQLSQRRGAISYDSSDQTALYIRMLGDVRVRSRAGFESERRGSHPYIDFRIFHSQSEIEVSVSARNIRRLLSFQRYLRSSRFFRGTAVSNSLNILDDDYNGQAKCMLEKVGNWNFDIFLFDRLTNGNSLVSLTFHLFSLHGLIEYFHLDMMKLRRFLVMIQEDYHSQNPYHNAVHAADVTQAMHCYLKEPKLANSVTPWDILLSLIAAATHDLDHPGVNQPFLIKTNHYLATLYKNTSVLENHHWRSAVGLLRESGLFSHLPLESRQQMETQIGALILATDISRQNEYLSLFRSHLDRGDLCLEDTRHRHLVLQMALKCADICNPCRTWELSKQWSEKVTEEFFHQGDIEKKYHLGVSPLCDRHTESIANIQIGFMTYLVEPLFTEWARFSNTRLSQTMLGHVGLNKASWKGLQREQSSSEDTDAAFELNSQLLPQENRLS
# other PDE isozymes = conditions: reported, read-out: Phosphodiesterase Inhibition, Others, IC50 (reported); cited from earlier work
# [6] = system: normal colonocytes (NCM460); test: Growth assay (Cell Titer Glo), normal colonocytes NCM460; format: cell-based, human; conditions: for IC50: Homo sapiens, NCM460
# Excerpt: as §1, §2, §4
# human colon tumor cells = test: Colon tumor cell growth (Cell Titer Glo), cell line not specified; format: cell-based; conditions: 72 hours of treatment
# Method: as §2, §3
# [7] = system: NCI-60 cancer cell line panel; test: Growth inhibition in NCI-60 cancer cell line panel; format: cell-based, human; conditions: FIG. 13
# Method: Tumor growth inhibitory activity was measured using a cell viability assay following 72 hours of treatment. Potency values (GI50) as measured in each tumor cell line are shown on the y axis.
# The human colon tumor cell lines, HCT116, HT29, SW480, SW620, colo741, Caco-2, DLD-1, LS174T, and RKO and human breast tumor cell lines, MCF7, T47D, ZR75, MDA-MB-231, HS578T, and MDA-MB-468 were purchased from ATCC and grown under standard cell culture conditions in RPMI 1640 medium containing 5% fetal bovine serum (FBS) at 37° C. in a humidified atmosphere with 5% CO2. All cell lines comprising the NCI-60 cancer cell panel were obtained from the NCI Developmental Therapeutics Program and maintained under the same standard conditions. The human normal colonocyte (NCM460) cell line was purchased from Incell (San Antonio, Tex.) and grown according to the manufacturer's specifications. The human colon adenoma cell line, LT97, was a gift from Dr. Brigitte Marian (Medical University Vienna, Austria) and grown according to the provider's specifications. […]
# Ninety-six (96)-well microtiter plates were seeded at a density of 5,000 cells per well. […] The effect of treatment with inhibitors or siRNA knockdown of PDE10A on growth was measured using the Cell Titer Glo Assay (Promega), which measures viable cell number based on ATP content. […]
# PDE5A = target: T3, PDE5A (Homo sapiens, UniProt O76074); test: IMAP fluorescence polarization PDE assay, PDE5A; format: biochemical; conditions: substrate cGMP; read-out: Phosphodiesterase Inhibition PDE5A (PDE5) cGMP IC50
# T3 construct: purchased BPS Biosciences
# Method: as §5, §6, §4
# [8] = system: patients with metastatic disease; conditions: Lundholm et al. 1994; cited from earlier work
# [9] = system: cGMP PDE activity in lysates from HCT116 cells; test: cGMP PDE activity in HCT116 cell lysates (IMAP); format: biochemical, human; conditions: FIG. 11B
# Method: Cell growth was measured by the Cell Titer Glo cell viability assay (Promega) following 72 hours of treatment, while cGMP PDE activity was measuring using the IMAP fluorescence polarization PDE assay (Molecular Devises).
# as §6
# β-catenin and survivin = test: Western blotting of β-catenin and survivin levels in HCT116; format: cell-based, human; conditions: FIG. 12B
# Method: Western blot analysis was performed as described previously (Tinsley, et al., supra). The following antibodies were used to detect specific proteins: PDE2 (GeneTex, 1:1000), PDE3 (Abcam, 1:1000), PDE5 (Cell Signaling, 1:1000), PDE10 (GeneTex, 1:1000), survivin (Cell Signaling, 1:1000), GAPDH (Cell Signaling, 1:5000).
# [10] = 72 hours of treatment, PDE isozyme inhibitor table
# [11] = Homo sapiens, HCT-116, PDE10 Inhibitors table, read-out: Growth Inhibition IC50, HCT-116
# [12] = Homo sapiens, HT-29, PDE10 Inhibitors table, read-out: Growth Inhibition IC50, HT-29
# [13] = PDE10 Inhibitors table, read-out: Growth Inhibition IC50, NCM-460
structure (smiles),measurement,setting,value
COCc1nc2c([nH]1)c(=O)n(C)c(=O)n2CC(C)C [8-MeoM-IBMX],Growth Inhibition (IC50/μM) HCT116,[1]; [10],Inactive
same,Growth Inhibition (IC50/μM) HT29,[2]; [10],Inactive
"Cc1nc2c3cc(Br)ccc3nc(SCC#N)n2n1 [Compound no. 5, 2-{(9-bromo-2-methyl-[1,2,4]triazolo[1,5-c]quinazolin-5-yl)thio}acetonitrile]",IC50,[1]; [11],9.93 µM
same,IC50,"PDE10A [3]; substrate cAMP, read-out: Phosphodiesterase Inhibition PDE10A cAMP IC50",0.00866 µM
same,IC50,"PDE10A [3]; substrate cGMP, read-out: Phosphodiesterase Inhibition PDE10A cGMP IC50",0.0089 µM
"COc1cc2c(cc1OC)-c1c(-c3cccnc3)ncn1CC2 [Compound no. 7, 8,9-dimethoxy-1-(pyridin-3-yl)-5,6-dihydroimidazo[5,1-a]isoquinoline]",IC50,[1]; [11],> 50 µM
same,IC50,[2]; [12],> 50 µM
same,IC50,[4],> 50 µM
same,IC50,PDE10A [5],0.029 µM
same,IC50,PDE3A,0.449 µM
same,Phosphodiesterase Inhibition PDE7A1 (reported),PDE7A1,45%
same,IC50,other PDE isozymes,> 4 µM
CCCCCC[C@@H]([C@@H](C)O)n1cnc2c(N)ncnc21 (racemic) [EHNA],Growth Inhibition (IC50/μM) HCT116,[1]; [10],Inactive
same,Growth Inhibition (IC50/μM) HT29,[2]; [10],Inactive
"Cn1cc(-c2ccncc2)c(-c2ccc(OCc3ccc4ccccc4n3)cc2)n1 [PF-2545920, 2-[4-(1-methyl-4-pyridin-4-yl-1H-pyrazol-3-yl)-phenoxymethyl]-quinoline]",IC50,[1]; [11],8.4 µM
same,IC50,[2]; [12],0.95 µM
same,IC50,[4],3.7 µM
same,growth inhibition in normal colonocytes (in words),"[6]; 72 hours of treatment, FIG. 11D",appreciably less effective
same,IC50,[6]; [13],18.8 µM
same,colon tumor cell growth inhibition (in words),human colon tumor cells,potently inhibited
same,tumor cell growth inhibitory activity in the NCI-60 cancer cell line panel (in words),[7],broad range of tumor cell growth inhibitory activity
same,GI50,"[7]; Homo sapiens, 72 hours of treatment, average over panel, read-out: average GI50 value in NCI60 cancer cell line panel",17.7 µM
same,IC50,PDE5A,> 50 µM
"CN1CC(=O)N2[C@H](c3ccc4c(c3)OCO4)c3[nH]c4ccccc4c3C[C@@H]2C1=O [Tadalafil, tadalafil]",IC50,"[1]; Homo sapiens, HCT-116, 72 hours of treatment, PDE isozyme inhibitor table, read-out: Growth Inhibition (IC50/μM) HCT116",38 µM
COc1ccc2c(c1)c(CC(=O)O)c(C)n2C(=O)c1ccc(Cl)cc1 [indomethacin],extension of survival,[8],approximately 9 months
"O=C1CCc2cc(OCCCCc3nnnn3C3CCCCC3)ccc2N1 [Cilostazol, cilostazol]",Growth Inhibition (IC50/μM) HCT116,[1]; [10],Inactive
same,Growth Inhibition (IC50/μM) HT29,[2]; [10],Inactive
"COc1ccc(Cc2nccc3cc(OC)c(OC)cc23)cc1OC [Papaverine, papaverine]","HCT116 colon tumor cell growth, single agents and combination (in words)",[1],suppressed
same,IC50,"[1]; Homo sapiens, HCT-116, 72 h, read-out: Growth Inhibition (IC50/μM) HCT116",9 µM
same,IC50,"[1]; Homo sapiens, HCT-116, 72 hours of treatment, FIG. 11, read-out: IC50, growth of HCT116 colon tumor cells",9 µM
same,IC50,[1]; [11],6.7 µM
same,IC50,"[2]; Homo sapiens, HT-29, 72 h, read-out: Growth Inhibition (IC50/μM) HT29",13 µM
same,IC50,"[2]; Homo sapiens, HT-29, 72 hours of treatment, FIG. 11, read-out: IC50, growth of HT29 colon tumor cells",13 µM
same,IC50,[2]; [12],24.5 µM
same,IC50,[4],11.2 µM
same,IC50,"[6]; 72 hours of treatment, FIG. 11, read-out: IC50, growth of normal colonocytes (NCM460)",118 µM
same,IC50,[6]; [13],> 100 µM
same,normal colonocytes (NCM460) less sensitive than colon tumor cell lines,[6]; NCM460 vs HCT116 and HT29,approximately 11 fold
same,cGMP hydrolysis in lysates from HCT116 cells (in words),[9],inhibited
same,β-catenin and survivin levels in HCT116 colon tumor cells (in words),β-catenin and survivin,reduced
Clc1cccc(Nc2nnc(-c3ccccc3)c3ccccc23)c1 [MY5445],IC50,"[1]; 72 hours of treatment, PDE isozyme inhibitor table, read-out: Growth Inhibition (IC50/μM) HCT116",18 µM
same,"HCT116 colon tumor cell growth, single agents and combination (in words)",[1],suppressed
same,IC50,"[2]; 72 hours of treatment, PDE isozyme inhibitor table, read-out: Growth Inhibition (IC50/μM) HT29",11 µM
same,β-catenin and survivin levels in HCT116 colon tumor cells (in words),β-catenin and survivin,reduced
"COc1ccc(C2CNC(=O)C2)cc1OC1CCCC1 (centres unmarked) [Rolipram, rolipram]",Growth Inhibition (IC50/μM) HCT116,[1]; [10],Inactive
same,Growth Inhibition (IC50/μM) HT29,[2]; [10],Inactive
"COc1cc(/C=N/NC(=O)C(OC)c2ccc(-n3cccn3)cc2)cc(OC)c1Br (centres unmarked) [Compound no. 4, (E)-2-{4-(1H-pyrazol-1-yl)phenyl}-N′-(4-bromo-3,5-dimethoxybenzylidene)-2-methoxyacetohydrazide]",IC50,"[1]; Homo sapiens, HCT-116, read-out: Growth Inhibition IC50, HCT-116",3.13 µM
